Assay [1] concerns the target T1, AMPKα2β2γ1 (Homo sapiens, UniProt P54646).
T1 construct: made in house; host or cells: HEK293 (transient transfection, anti-FLAG immunoprecipitate)
The assay is described as follows: Cell-free AMPK kinase assay (SAMS peptide). Type of assay: biochemical. The note with it: 200 μM ATP; 0 to 1 μM compound. How it is done: (§1) Heterotrimeric human AMPK FLAG- α1β1γ1, FLAG- α2β1γ1, and FLAG- α2β2γ1, as well as human FLAG-CaMKK2 and FLAG-ULK1, were produced in mammalian HEK293 cells as described ([66], [67]). For AMPK expression, the cells were triply transfected at 60% confluency using FuGene HD (Roche Applied Science) and 1 μg of pcDNA3 plasmid expression constructs for AMPK Flag-α1, β1-Myc, β2-Myc, and HA-γ1. For CaMKK2 expression, the cells were transfected with 1 μg of pcDNA3 Flag-CaMKK2 plasmid. For ULK1 expression, the cells were transfected with […] of pcDNA3 FLAG-ULK1 plasmid. After 48 hours, the transfected cells were harvested by rinsing with ice-cold PBS, followed by rapid lysis using 500 μl of lysis buffer. AMPK, CaMKK2, and ULK1 kinase activities were determined by phosphorylation of synthetic peptide substrates: SAMS (HMRSAMSGLHLVKRR), CaMKKtide ([…]), and S108tide. (KLPLTRSHNNFVARRR), respectively. Briefly, recombinant AMPK, CaMKK2, or ULK1 were immunoprecipitated from 10 μg of transfected cultured cell lysate using 10 μl of anti-FLAG M2 agarose beads [50% (v/v)] (Merck MilliporeSigma), washed, and then added to a 25-μl reaction containing assay buffer [50 mM Hepes-NaOH (pH 7.4), 1 mM DTT, and 0.02% (v/v) Brij-35], 200 μM synthetic peptide substrate (SAMS, CaMKKtide, or S108tide), 200 or 20 μM [γ-^32P]-ATP (PerkinElmer), 5 mM MgCl2, in the presence of 0 to 1 μM BAY-3827 or BAY-974. Reactions were performed at 30°C and terminated after 10 min by spotting 15 μl onto phosphocellulose paper. Radioactivity was quantified by liquid scintillation counting. Data visualization and nonlinear regression fitting were performed in GraphPad Prism v10.
(§2) Data points are plotted as means ± SEM. Data were inputted, and all statistical tests were performed using GraphPad Prism, version 10.1.0. One- or two-way analysis of variance (ANOVA) statistical tests were conducted using Tukey’s correction for multiple comparisons; specific test will be stated in the figure legend. Significance was accepted as P < 0.05. N number and statistical details for each experiment are reported in each figure legend. […] To estimate IC50 values, nonlinear regression fitting was conducted using the model (Inhibitor) versus response—variable slope in GraphPad Prism (version 10.1.0) and estimating values reported in nanomolar. To estimate binding affinities (Kd) from performed spectral shift binding assays, data were fitted using a one-site total model [Y = BmaxX/(Kd + X) + NSX + Background] where X is the ligand concentration, Bmax represents the maximum binding, and NS is the slope of the nonlinear regression of Y/X. Values are reported in means ± SEM in micromolar.

Assay [2] has as its target T2, AMPKα2β1γ1 (Homo sapiens, UniProt P54646).
T2 construct: made in house; host or cells: HEK293 (transient transfection, anti-FLAG immunoprecipitate)
The assay is described as follows: Cell-free AMPK kinase assay (SAMS peptide). Type of assay: biochemical. The note with it: 200 μM ATP; 0 to 1 μM BAY-974. How it is done:
as §1, §2

Assay [3] deals with T3, AMPKα1β1γ1 (Homo sapiens, UniProt Q13131).
T3 construct: made in house; host or cells: HEK293 (transient transfection, anti-FLAG immunoprecipitate)
T3 sequence (Q13131 whole entry): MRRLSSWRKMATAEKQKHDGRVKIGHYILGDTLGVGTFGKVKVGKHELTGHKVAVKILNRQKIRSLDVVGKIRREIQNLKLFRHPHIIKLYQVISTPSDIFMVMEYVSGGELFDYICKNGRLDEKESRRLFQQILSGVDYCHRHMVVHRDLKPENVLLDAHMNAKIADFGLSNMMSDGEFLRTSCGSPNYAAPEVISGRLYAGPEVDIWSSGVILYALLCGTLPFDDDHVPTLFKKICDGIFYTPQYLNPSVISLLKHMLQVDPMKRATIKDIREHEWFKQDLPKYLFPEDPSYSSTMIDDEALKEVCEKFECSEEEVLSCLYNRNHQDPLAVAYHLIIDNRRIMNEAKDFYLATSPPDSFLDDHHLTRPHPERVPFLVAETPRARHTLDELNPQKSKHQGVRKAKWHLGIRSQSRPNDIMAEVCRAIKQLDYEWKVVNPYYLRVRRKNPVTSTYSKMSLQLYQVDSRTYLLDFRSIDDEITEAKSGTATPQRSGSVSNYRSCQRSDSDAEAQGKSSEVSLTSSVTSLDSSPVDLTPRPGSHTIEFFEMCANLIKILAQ
T3 sequence (Q9Y478 whole entry partner): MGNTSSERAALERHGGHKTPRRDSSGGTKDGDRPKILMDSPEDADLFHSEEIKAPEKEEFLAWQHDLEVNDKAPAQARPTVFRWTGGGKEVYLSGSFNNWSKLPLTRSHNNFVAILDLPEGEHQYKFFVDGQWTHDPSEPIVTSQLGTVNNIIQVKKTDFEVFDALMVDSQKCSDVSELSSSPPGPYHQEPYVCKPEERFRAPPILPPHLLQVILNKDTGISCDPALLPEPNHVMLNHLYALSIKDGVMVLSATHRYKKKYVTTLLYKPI
T3 sequence (P54619 whole entry partner): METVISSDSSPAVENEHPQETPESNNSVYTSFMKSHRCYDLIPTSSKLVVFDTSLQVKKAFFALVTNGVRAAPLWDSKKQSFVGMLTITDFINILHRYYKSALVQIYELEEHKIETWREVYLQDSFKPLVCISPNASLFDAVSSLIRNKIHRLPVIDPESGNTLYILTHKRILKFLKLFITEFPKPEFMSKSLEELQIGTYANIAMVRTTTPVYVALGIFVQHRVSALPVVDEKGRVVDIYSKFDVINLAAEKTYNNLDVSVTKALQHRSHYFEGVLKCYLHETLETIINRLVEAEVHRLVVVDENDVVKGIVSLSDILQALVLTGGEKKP
The assay is described as follows: Cell-free AMPK kinase assay (SAMS peptide). The class given is biochemical. The note with it: 200 μM ATP; 0 to 1 μM compound. How it is done:
as §1, §2

In the next assay the test system is mouse primary adipocytes. Briefly: Glucose uptake of primary adipocytes. The class given is cell-based. The note with it: varying doses.
Assay [4] concerns the target T4, AMPKα1β1γ1 (Homo sapiens, UniProt P54619+Q13131+Q9Y478).
T4 construct: made in house; host or cells: HEK293 (transient transfection, anti-FLAG immunoprecipitate)
Briefly: Cell-free AMPK kinase assay (SAMS peptide). Type of assay: biochemical. Here is the method:
as §1, §2

Assay [5] deals with T5, AMPKα2β2γ1 (Homo sapiens, UniProt O43741+P54619+P54646).
T5 construct: made in house; host or cells: HEK293 (transient transfection, anti-FLAG immunoprecipitate)
T5 sequence (P54646 whole entry): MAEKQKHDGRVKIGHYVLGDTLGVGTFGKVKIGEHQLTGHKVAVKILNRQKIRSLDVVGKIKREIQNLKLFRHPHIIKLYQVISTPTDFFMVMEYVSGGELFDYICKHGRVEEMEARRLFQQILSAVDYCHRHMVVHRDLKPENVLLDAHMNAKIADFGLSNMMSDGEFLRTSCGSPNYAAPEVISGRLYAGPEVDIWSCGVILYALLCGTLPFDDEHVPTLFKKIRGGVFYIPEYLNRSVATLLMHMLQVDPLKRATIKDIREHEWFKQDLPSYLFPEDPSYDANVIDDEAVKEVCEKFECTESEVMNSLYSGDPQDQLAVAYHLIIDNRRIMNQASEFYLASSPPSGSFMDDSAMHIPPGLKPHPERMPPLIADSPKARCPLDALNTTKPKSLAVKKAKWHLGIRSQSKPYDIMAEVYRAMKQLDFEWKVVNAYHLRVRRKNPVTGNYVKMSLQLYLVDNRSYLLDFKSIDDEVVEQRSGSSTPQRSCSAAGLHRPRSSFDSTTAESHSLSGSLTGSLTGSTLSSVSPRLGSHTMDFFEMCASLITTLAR
T5 sequence (O43741 whole entry partner): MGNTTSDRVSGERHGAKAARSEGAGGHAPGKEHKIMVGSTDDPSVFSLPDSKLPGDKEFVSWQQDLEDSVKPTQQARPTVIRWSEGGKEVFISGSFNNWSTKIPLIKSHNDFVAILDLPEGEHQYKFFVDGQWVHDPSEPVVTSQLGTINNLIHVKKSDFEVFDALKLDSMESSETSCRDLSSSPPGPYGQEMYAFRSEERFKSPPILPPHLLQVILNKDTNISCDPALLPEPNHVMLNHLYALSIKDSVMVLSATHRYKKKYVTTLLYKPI
T5 sequence (P54619 whole entry partner): as the sequence (P54619 whole entry partner) above
The assay is described as follows: Cell-free AMPK kinase assay (SAMS peptide). The class given is biochemical. How it is done: as §1, §2

Assay [6] deals with T6, AMPKα2β1γ1 (Homo sapiens, UniProt P54619+P54646+Q9Y478).
T6 construct: made in house; host or cells: HEK293 (transient transfection, anti-FLAG immunoprecipitate)
T6 sequence (P54646 whole entry): as the sequence (P54646 whole entry) above
T6 sequence (Q9Y478 whole entry partner): as the sequence (Q9Y478 whole entry partner) above
T6 sequence (P54619 whole entry partner): as the sequence (P54619 whole entry partner) above
The assay is described as follows: Cell-free AMPK kinase assay (SAMS peptide). The class given is biochemical. Here is the method: as §1, §2

The target in a further assay is T7, AMPKα2 (T172D)–α2KD (Homo sapiens, UniProt P54646, T172D).
T7 construct: human AMPK-α2 KD (α2KD; residues 6 to 280); made in house; host or cells: E. coli BL21(DE3)-RIL
T7 sequence (P54646 6-280 T172D): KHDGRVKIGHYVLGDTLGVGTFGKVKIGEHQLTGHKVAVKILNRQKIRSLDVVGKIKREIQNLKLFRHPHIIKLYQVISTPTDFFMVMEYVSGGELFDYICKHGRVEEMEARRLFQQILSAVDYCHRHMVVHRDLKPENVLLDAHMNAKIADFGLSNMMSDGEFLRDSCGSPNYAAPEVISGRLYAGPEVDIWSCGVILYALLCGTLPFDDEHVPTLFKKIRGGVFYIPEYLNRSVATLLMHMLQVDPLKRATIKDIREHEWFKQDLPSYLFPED
Briefly: Spectral shift (Dianthus) binding assay. Conditions: read-out: dissociation constant (Kd). How it is done:
(§3) The binding affinity of BAY-3827 to α2KD, AMPK (T172D)-α2KD, or AMPK complexes α2β2γ1 and α2β2γ3 was measured by Dianthus (Nano Temper Technologies). BAY-3827 was diluted from a 100 mM stock in DMSO to 0.5 mM working concentration in the assay buffer (PBS with 0.005% Tween-20) with a final DMSO concentration of 2.5%, which was kept constant throughout the concentration gradient of the compound. For additional experiments, assay buffer containing Hepes 25 mM, NaCl 250 mM, and 0.005% Tween-20 was used to optimize the assay, enhancing signal-to-noise ratios. His-tagged α2KD, T172D-α2KD, or His-tagged AMPK-α2β2γ1 or α2β2γ3 complexes were labeled with His-tag labeling dye (His-Tag Labeling Kit RED-tris-NTA 2nd Generation). The ratio of fluorescence intensities (670/650 nm) over BAY-3827 concentration gradient ranging from 250 μM down to 0.015 μM. The concentration gradient was prepared by 1:1 serial dilution over 16 steps, with a setup of two to three technical replicates for each concentration. The binding experiments were repeated three times, and the mean Kd values of the inhibitor are reported in the appropriate figure alongside ± SEM (micromolar) displaying a representative graph. A concentration of 50 nM of the corresponding protein target was used in each performed assay. The ratio of fluorescence intensities was measured over BAY-3827 concentration gradient in GraphPad Prism using nonlinear regression (one site-total binding). Data quality was assessed by monitoring XYZ scans for each well to detect air bubbles or aggregation where present following the manufacturer’s instructions.
as §2

In assay [7] the target is T8, nonphosphorylated AMPKα2β2γ3 complex (Homo sapiens, UniProt O43741+P54646+Q9UGI9).
T8 construct: For expression of full-length AMPKα2β2γ1, α2β2γ2, and α2β2γ3 complexes; made in house; host or cells: E. coli BL21(DE3)-RIL
T8 sequence (P54646 whole entry): as the sequence (P54646 whole entry) above
T8 sequence (O43741 whole entry partner): as the sequence (O43741 whole entry partner) above
T8 sequence (Q9UGI9 whole entry partner): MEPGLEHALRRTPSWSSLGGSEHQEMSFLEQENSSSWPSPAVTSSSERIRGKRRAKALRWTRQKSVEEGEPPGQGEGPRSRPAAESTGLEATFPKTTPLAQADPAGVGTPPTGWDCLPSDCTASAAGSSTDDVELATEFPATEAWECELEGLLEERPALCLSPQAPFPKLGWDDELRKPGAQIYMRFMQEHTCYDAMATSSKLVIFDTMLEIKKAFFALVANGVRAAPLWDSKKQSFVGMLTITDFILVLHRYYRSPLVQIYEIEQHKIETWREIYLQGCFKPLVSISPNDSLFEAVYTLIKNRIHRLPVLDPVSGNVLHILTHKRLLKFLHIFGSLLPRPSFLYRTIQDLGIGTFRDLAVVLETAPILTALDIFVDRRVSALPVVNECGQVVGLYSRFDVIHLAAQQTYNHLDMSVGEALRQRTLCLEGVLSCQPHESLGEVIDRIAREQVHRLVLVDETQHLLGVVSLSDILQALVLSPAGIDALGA
Briefly: Spectral shift (Dianthus) binding assay. Conditions: read-out: dissociation constant (Kd). Here is the method: as §3, §2

A further assay has as its system AMPK. On the set-up: method as in PMID 33492659. Conditions: 2 μM AMP, cited from earlier work.

Where “and” joins values, the source holds several entries; their conditions need not be identical. Identical values can stand only once. Like-named read-outs stand apart in the source and are kept apart here.

T4 sequence (Q13131 whole entry): as the sequence (Q13131 whole entry) above
T4 sequence (Q9Y478 whole entry partner): as the sequence (Q9Y478 whole entry partner) above
T4 sequence (P54619 whole entry partner): as the sequence (P54619 whole entry partner) above
T1 sequence (P54646 whole entry): as the sequence (P54646 whole entry) above
T1 sequence (O43741 whole entry partner): as the sequence (O43741 whole entry partner) above
T1 sequence (P54619 whole entry partner): as the sequence (P54619 whole entry partner) above
T2 sequence (P54646 whole entry): as the sequence (P54646 whole entry) above
T2 sequence (Q9Y478 whole entry partner): as the sequence (Q9Y478 whole entry partner) above
T2 sequence (P54619 whole entry partner): as the sequence (P54619 whole entry partner) above

As to `CC1=C(C#N)C(c2ccc3c(c2)c(NC(=O)c2ccccc2C)nn3C)C(C#N)=C(C)N1` [BAY-974, N-[5-(3,5-dicyano-2,6-dimethyl-1,4-dihydropyridin-4-yl)-1-methylindazol-3-yl]-2-methylbenzamide], the “inhibitory effect on AMPK complex” value against AMPKα2β2γ1 [1], at AMPKα2β1γ1 [2] and at AMPKα1β1γ1 [3] was “no effect” each time.
What is called IC50 is the concentration that inhibits the measured activity by half. As usually defined, the Kd is the concentration at which binding is half-saturated. Regarding `CCc1ccccc1C(=O)Nc1n[nH]c2c(C)c(F)c(C3C(C#N)=C(C)N(C)C(C)=C3C#N)cc12` [BAY-3827, N-[5-(3,5-dicyano-1,2,6-trimethyl-4H-pyridin-4-yl)-6-fluoro-7-methyl-1H-indazol-3-yl]-2-ethylbenzamide], in the assay with mouse primary adipocytes, the “basal and insulin-stimulated glucose uptake” value is given as “not significantly affected”. In addition, the IC50 against AMPKα1β1γ1 [4] (20 μM ATP) was 0.0018 µM; on AMPKα1β1γ1 [4] (200 μM ATP), 0.0312 µM; on AMPKα2β2γ1 [5] (20 μM ATP) it was 0.0028 µM and 0.00283 µM; on AMPKα2β2γ1 [5] (200 μM ATP) it was 0.0365 µM; on AMPKα2β1γ1 [6] (20 μM ATP) it was 0.0041 µM and 0.00408 µM; against AMPKα2β1γ1 [6] (200 μM ATP), 0.057 µM and 0.0571 µM. Further, the half-maximal inhibitory concentration (IC50) was 0.015 µM in the assay on AMPK (high (2 mM) ATP) and 0.0014 µM with AMPK (low (10 μM) ATP). The values for the Kd (on AMPKα2 (T172D)–α2KD (+3 mM DTT); on AMPKα2 (T172D)–α2KD (- DTT); in [7]) were 9.01 ± 1.85 µM, 8.65 ± 1.38 µM and 21.8 ± 8.51 µM, respectively.

Values taken from article PMC12372887, “Mechanism and cellular actions of the potent AMPK inhibitor BAY-3827” (Science Advances, 2025).
